Reference: patent US5945436A, “Pyridylmethyl nitriles, amides and thioamides useful as fungicides” (Uniroyal Chemical Company, Inc., priority 1997, dated 1999)

What was measured:
Uromyces phaseoli = test: Bean rust fungus eradicant test (URO PHA); assay type: in vivo; conditions: Uromyces phaseoli, 216 h, pinto bean, eradicant spray 2 days after inoculation, 1,000 mg/l; read-out: Percent Reduction of Disease, URO PHA
Method in brief: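 Seven-day-old pinto bean plants (Phaseolus vulgaris, primary leaf) were inoculated with 20,000 spores/ml, held 24 h at 99% humidity and 21° C., then sprayed two days post-inoculation with acetone/TWEEN 20 emulsions at 1,000 mg/l. After nine days in a 21° C. greenhouse, disease was scored as percent reduction versus unsprayed controls.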

Erysiphe polygoni = test: Powdery mildew on pinto bean, foliar application (ERY POL); assay type: in vivo; conditions: Erysiphe polygoni, similar procedure as barley (1,000 mg/l), read-out: Percent Reduction of Disease, ERY POL
Method in brief: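 Pinto bean plants sprayed with compound emulsion (acetone or inert solvent, TWEEN 20, water) at 1,000 mg/l, or left unsprayed, dried, then inoculated with Erysiphe polygoni spores in a 21° C greenhouse. Disease scored; percent control computed against untreated controls.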

Pyricularia oryzae = test: whole plant or invertebrate; assay type: in vivo; conditions: Pyricularia oryzae, in Hordeum vulgare, foliar, 216 h, read-out: Percent Reduction of Disease, PYR ORY, barley, foliar, 1,000 mg/l
Septoria nodorum = test: Fungal growth inhibition, treated disc on agar (SEP NOD); assay type: cell-based; conditions: Parastagonospora nodorum, disc dipped in 500 mg/l, 29° C., read-out: Percent Growth Inhibition, SEP NOD
Pythium ultimum = test: Fungal growth inhibition, treated disc on agar (PYT ULT); assay type: cell-based; conditions: Globisporangium ultimum, disc dipped in 500 mg/l, 29° C., read-out: Percent Growth Inhibition, PYT ULT
Source text: Filter paper discs, each 11 mm. in diameter, were dipped in each of the test solutions. The discs were allowed to air dry to drive off the acetone solvent. A number of untreated discs were used as controls.
The treated and untreated discs were then placed on agar plates and one of the following fungus species: Septoria nodorum (SEP NOD), Botrytis cinerea (BOT CIN), Fusarium oxysporum (FUS OXY), Pythium ultimum (PYT ULT), Rhizoctonia solani (RHI SOL), Colletotrichum gossypii (COL GOS), and Scierotinia minor (SCL MIN), was added to the center of each disc in the form of a culture plug with the fungus mat in contact with the paper of the test disc. Cercosporidium personatum (CER PER), was added to discs as a spore suspension (20,000 spores/ml) to the disc (two drops of spore suspension per disc), rather than a mycelial culture plug. The plates were then incubated at 29° C. in an oven.
With the exception of the discs containing Cercosporidium personatum, the discs were evaluated by first measuring the radius from the center of the fungus colony on the treated discs and on the untreated discs. Percent growth inhibition of each of the compounds tested was determined as a function of the difference between the radius of the fungus colony on the treated disc versus the radius of the fungus colony on the untreated disc.

Colletotrichum gossypii = test: Fungal growth inhibition, treated disc on agar (COL GOS); assay type: cell-based; conditions: Colletotrichum gossypii, disc dipped in 500 mg/l, 29° C., read-out: Percent Growth Inhibition, COL GOS

Row | SMILES | pest or weed control at 1000 µg/mL (Uromyces phaseoli) [%] | pest or weed control at 1000 µg/mL (Erysiphe polygoni) [%] | pest or weed control at 1000 µg/mL (Pyricularia oryzae) [%] | inhibition at 500 µg/mL (Septoria nodorum) [%] | inhibition at 500 µg/mL (Pythium ultimum) [%] | inhibition at 500 µg/mL (Colletotrichum gossypii) [%]
1 | CCCCC(C#N)(CCc1ccccc1C(F)(F)F)c1cccnc1 (stereo not drawn) [Compound 73] | 100 | 100 | 0 | 70 | 69 | 85
2 | CCCCC(C#N)(CCc1ccccc1F)c1cccnc1 (stereo not drawn) [Compound 74] | 92 | 100 | 0 | 100 | 36 | 100
3 | CCCC(C#N)(CCc1ccccc1F)c1cccnc1 (stereo not drawn) [Compound 75] | 83 | 100 | 0 | 100 | 1 | 100
4 | CCCCC(C#N)(CCCc1ccc(OC)cc1)c1cccnc1 (stereo not drawn) [Compound 76] | 67 | 100 | 0 | 100 | 0 | 100
5 | N#CC(CCc1ccc(F)cc1)(CCC(F)(F)F)c1cccnc1 (stereo not drawn) [Compound 77] | 90 | 100 | 35 | 20 | 30 | 15
6 | N#CC(CCCC(F)(F)F)(CCc1ccc(F)cc1)c1cccnc1 (stereo not drawn) [Compound 78] | 83 | 92 | 100 | 30 | 0 | 50
7 | Cc1ccc(CCC(C#N)(CCCC(F)(F)F)c2cccnc2)cc1 (stereo not drawn) [Compound 79] | 0 | 100 | 11 | 30 | 0 | 30
8 | Cc1ccc(CCC(C#N)(CCC(F)(F)F)c2cccnc2)cc1 (stereo not drawn) [Compound 80] | 83 | 100 | 78 | 0 | 7 | 59
